Tested on: Paenibacillus sp. strain NRRL B-50972
Test: Antibiotic sensitivity on sLB agar
Format: cell-based
Conditions: growth after 24, 48, 72 hours at 30° C.

| Compound | Sensitive/Resistant (antibiotic 10 μg/mL) | Sensitive/Resistant (antibiotic 25 μg/mL) |
| --- | --- | --- |
| Polymyxin B | Resistant | – |
| CCn1cc(C(=O)O)c(=O)c2ccc(C)nc21 [Nalidixic acid] | – | Sensitive |

Source: patent US11623944B2, “Paenibacillus strain, antifungal compounds, and methods for their use” (Bayer CropScience LP, priority 2015, dated 2023)
